One assay addresses T1, PI3Kalpha (Homo sapiens, UniProt P42336).
T1 construct: His (N); made in house; host or cells: SF9 insect cells (baculovirus co-infection)
Nature of the assay: Inhibition of PI3Kalpha-induced PIP-2 phosphorylation (filter-binding assay, 33P-ATP). The format is biochemical. The note with it: PI3 Kinase alpha (p85alpha/His-p110alpha), 1 μM ATP; read-out: IC50 PI3Kα. The protocol: Biological Methods Inhibition of PI3Kalpha-Induced PIP-2 Phosphorylation
See also J. A. Engelman, Nature Reviews Cancer, 2009, 9, 550-562; A. Carnero, Expert Opin. Investig. Drugs, 2009, 18, 1265-1277 and P. Liu et al., Nature Reviews Drug Discovery, 2009, 8, 627-64.
Method Type: Filter-Binding-Assay
Aliquoted in desired amounts and stored at −80° C. […] Assay Procedure
The substrate-containing lipid vesicles are dissolved to a concentration of 0.637 mg lipid blend/ml assay buffer (with BSA, freshly added) in 50 ml Falcon ->keep on ice, followed by ultrasonication (pulse of 15 sec followed by a pause of 10 sec, 4×). Compounds are serially diluted in assay buffer+6% DMSO and 10 μl of each dilution is added per well of a 96-well plate (compounds are tested in duplicates) and mixed with 30 μl of the lipid vesicles containing PDGFR-Peptide (0.5 μM final) and PI3K alpha (25 ng/well final). The mixture is then incubated for 20 minutes at room temperature.
Subsequently, 20 μl of assay buffer containing 3 μM cold ATP and 0.5 μCi/20 μl 33P-ATP are added. The plates are then incubated at room temperature for 120 minutes (shaking with 300 rpm).
The reaction mix is transferred onto filter plates using “filtermate harvester” from Packard: filter plates are rinsed with PBS, then the reaction mix is filtered onto the filter plate, washed 5 times with PBS and are allowed to dry for 30-60 minutes at 50° C. The plate bottom is sealed with Perkin Elmer white adhesive foil and 25 μl/well Microscint0 are added, the top is covered with transparent adhesive foil and the plate is measured with Wallac Trilux 1450 Microbeta Counter.
As positive control serve wells containing vehicle controls (1% DMSO in assay buffer), showing non-inhibited kinase activity (high values). Wells containing assay buffer instead of enzyme can serve as control for background activity (low values).
Calculate IC50 values using the Smiley program (based on GrapPad Prism)

The next assay relates to BT474 cells. Nature of the assay: alamarBlue BT474 cell assay (antiproliferative/cytotoxicity). The format is cell-based. The note with it: BT-474 human breast cancer cell line, 5-6 days incubation. The text has this: (§1) The H460, MB453, U87, MCF7 and BT474 alamarBlue cell assays provide EC50 values indicative of the antiproliferative or cytotoxic effects of the compounds to respectively the H460 (human non small cell line cancer), MB-453 (breast cancer cell line), U87 (glioblastoma cell line), MCF7 (breast cancer cell line) and BT474 (breast cancer cell line). As known in the field, antiproliferative or cytotoxic effect against this cell lines would be expected to be indicative of activity in treating lung, breast and brain cancers. See R. Marone R et al. Biochim. Biophys. Acta. 2008 January; 1784(1):159-85. S. Yaguchi et al., J. Natl. Cancer Inst. 2006 Apr. 19; 98(8):545-56.
(§2) Method Type: Antiproliferative/Cytotoxicity
(§3) alamarBlue® is designed to provide a rapid and sensitive measure of cell proliferation and cytotoxicity in various human and animal cell lines. The assay is based on the reduction of alamarBlue in the reducing environment of living (metabolically active) cells. In the presence of added cytotoxic or antiproliferative compounds, the innate metabolic activity ceases.
(§4) AlamarBlue is soluble and stable in culture medium. Measurements are made fluorometrically by exciting at 530-560 nm and measuring emission at 590 nm. In reporting percent alamarBlue reduction by monitoring fluorescence, data are expressed as fluorescence emission intensity units as a function of time of incubation.
(§5) 3. Equipment • 96-well plates, flat bottom (Falcon, Cat. No.: 353072) • 96-well plates, U-shaped (Costar, Cat. No.: 3799) • CO2-Incubator • Microplate Reader, Spectramax Plus, Molecular Devices 4. Typical Procedure • Day 0: Seed 3000 BT-474 cells (IMDM/5% FCS, 1% NEAA, 1% Sodiumpyruvat) in 150 μl medium into a 96-well plate, flat bottom (include mediumblank). Incubate plates at 37° C. in a CO2 incubator overnight. • Day 1: Dilute compounds to a concentration 40 μM ->1:3 in medium, 10 dilution steps, in 96-well plates. • Add 50 μl per well of each dilution (total volume per well 200 μl; final conc. of cpds: 10 μM ->1:3). If required, test further dilutions. • All concentrations are tested in duplicates. • Controls: Cells w/o cpd. (+50 μl medium/DMSO). • Cells are incubated with compounds for 5-6 days. • Day 6 or 7: Add 25 μl of alamarBlue solution to each well and incubate for 8 hours at 37° C. Measure fluorescence by exciting at 530-560 nm and measuring emission at 590 nm 5. Evaluation • Subtract average value for medium blank from sample readings • Calculate EC50 using GraphPad Prism (Fifty)
A general note: Alamar Blue is a resazurin reagent that responds to reducing activity.

Another assay concerns MB453 cells. The assay is described as follows: alamarBlue MB453 cell assay (antiproliferative/cytotoxicity). The format is cell-based. The note with it: Homo sapiens; MDA MB 453 breast cancer cell line.
Source text: as §1, §2, §3, §4, §5

Another assay has as its system H460 cells. The assay is described as follows: alamarBlue H460 cell assay (antiproliferative/cytotoxicity). The note with it: NCI-H460; H460 human lung carcinoma cells. The format is cell-based.
Source text: as §1, §2, §3, §4, §5

The next assay deals with MCF7 cells. Nature of the assay: alamarBlue MCF7 cell assay (antiproliferative/cytotoxicity). The format is cell-based. The note with it: MCF7 human breast cancer cell line.
Source text: as §1, §2, §3, §4, §5

Another assay deals with U87 cells. The assay is described as follows: alamarBlue U87 cell assay (antiproliferative/cytotoxicity). The format is cell-based. The note with it: U-87MG human glioblastoma cells.
Source text: as §1, §2, §3, §4, §5

T1 sequence (P27986 whole entry): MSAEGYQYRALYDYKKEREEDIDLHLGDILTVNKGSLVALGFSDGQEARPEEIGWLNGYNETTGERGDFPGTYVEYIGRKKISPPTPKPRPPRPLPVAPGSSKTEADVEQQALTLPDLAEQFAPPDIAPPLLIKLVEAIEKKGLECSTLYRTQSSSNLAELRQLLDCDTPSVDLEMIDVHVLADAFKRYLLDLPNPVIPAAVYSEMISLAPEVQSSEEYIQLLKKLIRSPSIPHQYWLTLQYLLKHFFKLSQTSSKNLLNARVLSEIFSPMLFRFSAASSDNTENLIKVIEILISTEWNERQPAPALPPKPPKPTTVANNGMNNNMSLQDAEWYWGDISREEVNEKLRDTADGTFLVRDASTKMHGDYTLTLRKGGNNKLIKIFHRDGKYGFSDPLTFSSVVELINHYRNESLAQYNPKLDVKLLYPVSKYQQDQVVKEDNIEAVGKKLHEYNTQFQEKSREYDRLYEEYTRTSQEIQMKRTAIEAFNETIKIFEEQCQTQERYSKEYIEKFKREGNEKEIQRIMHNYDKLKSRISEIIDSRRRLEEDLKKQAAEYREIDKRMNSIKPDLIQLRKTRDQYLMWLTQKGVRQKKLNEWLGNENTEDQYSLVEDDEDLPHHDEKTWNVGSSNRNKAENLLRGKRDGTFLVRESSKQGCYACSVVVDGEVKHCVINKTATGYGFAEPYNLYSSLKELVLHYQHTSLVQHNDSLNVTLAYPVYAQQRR
T1 sequence (P42336 whole entry): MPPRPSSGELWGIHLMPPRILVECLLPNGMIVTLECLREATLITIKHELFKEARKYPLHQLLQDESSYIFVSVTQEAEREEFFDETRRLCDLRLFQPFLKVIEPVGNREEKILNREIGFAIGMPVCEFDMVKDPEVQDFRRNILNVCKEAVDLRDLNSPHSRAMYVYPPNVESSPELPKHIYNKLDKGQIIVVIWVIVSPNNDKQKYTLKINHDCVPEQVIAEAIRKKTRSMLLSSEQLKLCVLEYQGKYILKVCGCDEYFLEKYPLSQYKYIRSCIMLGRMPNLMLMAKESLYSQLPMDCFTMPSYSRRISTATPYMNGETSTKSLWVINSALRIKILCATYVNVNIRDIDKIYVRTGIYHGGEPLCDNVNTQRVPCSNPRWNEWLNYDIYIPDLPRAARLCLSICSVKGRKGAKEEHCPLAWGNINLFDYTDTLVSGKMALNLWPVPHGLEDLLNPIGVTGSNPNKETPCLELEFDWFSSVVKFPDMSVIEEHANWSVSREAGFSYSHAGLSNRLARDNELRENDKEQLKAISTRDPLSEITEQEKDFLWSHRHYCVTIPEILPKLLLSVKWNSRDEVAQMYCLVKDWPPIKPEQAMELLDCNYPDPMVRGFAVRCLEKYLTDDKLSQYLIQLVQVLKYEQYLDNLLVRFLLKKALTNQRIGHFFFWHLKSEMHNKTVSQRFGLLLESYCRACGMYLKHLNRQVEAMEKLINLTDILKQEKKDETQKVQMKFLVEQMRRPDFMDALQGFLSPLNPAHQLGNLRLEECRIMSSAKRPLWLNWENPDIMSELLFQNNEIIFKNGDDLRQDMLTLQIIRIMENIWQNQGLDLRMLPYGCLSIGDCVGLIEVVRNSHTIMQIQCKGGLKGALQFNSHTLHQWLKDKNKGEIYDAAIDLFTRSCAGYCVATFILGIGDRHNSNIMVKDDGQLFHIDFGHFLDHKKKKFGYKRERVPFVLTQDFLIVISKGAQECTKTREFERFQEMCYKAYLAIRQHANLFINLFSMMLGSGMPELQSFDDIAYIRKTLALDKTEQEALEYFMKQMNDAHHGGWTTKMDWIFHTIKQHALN

`CCc1ncnc(-c2ccccc2F)c1C#Cc1cnc(C)c(NS(C)(=O)=O)c1` [Example 57, N-{5-[4-Ethyl-6-(2-fluoro-phenyl)-pyrimidin-5-ylethynyl]-2-methyl-pyridin-3-yl}-methanesulfonamide]: the half-inhibitory concentration (IC50) at PI3Kalpha is 8 nM. Also, the half-maximal effective concentration (EC50) with BT474 cells is 1080 nM; in the assay on MB453 cells, 1620 nM; with H460 cells, 3140 nM; in the assay on MCF7 cells it was 541 nM; with U87 cells, 2660 nM.

Turning to `CCc1ncnc(-c2ccnc(C)c2)c1C#Cc1cnc(C)c(NS(C)(=O)=O)c1` [Example 4, N-{5-[4-Ethyl-6-(2-methyl-pyridin-4-yl)-pyrimidin-5-ylethynyl]-2-methyl-pyridin-3-yl}-methanesulfonamide], the half-inhibitory concentration (IC50) at PI3Kalpha is 2 nM. For the same compound, the concentration giving a half-maximal response (EC50) in the assay on BT474 cells was found to be 171 nM; in the assay on MB453 cells, 75 nM; in the assay with H460 cells it was 329 nM; in the assay with MCF7 cells it was 27 nM; in the assay on U87 cells, 383 nM.

In the case of `CCc1ncnc(-c2ccc(CNC(=O)OC(C)(C)C)nc2)c1C#Cc1cnc(C)c(NS(=O)(=O)c2ccccc2C(F)(F)F)c1` [Example 49, (5-{6-Ethyl-5-[6-methyl-5-(2-trifluoromethyl-benzenesulfonylamino)-pyridin-3-ylethynyl]-pyrimidin-4-yl}-pyridin-2-ylmethyl)-carbamic acid tert-butyl ester], on PI3Kalpha, the half-maximal inhibitory concentration (IC50) came out at 2 nM. For the same compound, the EC50 in the assay with BT474 cells worked out at 207 nM; with MB453 cells it was 169 nM; in the assay with H460 cells, 120 nM; in the assay on MCF7 cells, 57 nM; in the assay on U87 cells, 241 nM.

Consider `CCc1nc(N)nc(-c2ccc(C)nc2)c1C#Cc1cnc(C)c(NS(=O)(=O)c2ccc(F)cc2F)c1` [Example 36, N-{5-[2-Amino-4-ethyl-6-(6-methyl-pyridin-3-yl)-pyrimidin-5-ylethynyl]-2-methyl-pyridin-3-yl}-2,4-difluoro-benzenesulfonamide], for which the IC50 at PI3Kalpha was 0.56 nM. The EC50 in the assay with BT474 cells came out at 41 nM; with MB453 cells, 37 nM; in the assay on H460 cells, 30 nM; with MCF7 cells, 10 nM; in the assay with U87 cells it was 127 nM.

Turning to `CCc1ncnc(-c2ccnc(C)c2)c1C#Cc1cnc(C)c(NS(=O)(=O)c2ccccc2Cl)c1` [Example 11, 2-Chloro-N-{5-[4-ethyl-6-(2-methyl-pyridin-4-yl)-pyrimidin-5-ylethynyl]-2-methyl-pyridin-3-yl}-benzenesulfonamide], on PI3Kalpha, the concentration for half-maximal inhibition (IC50) was found to be 1 nM. Further, the concentration for a half-maximal effect (EC50) in the assay with MB453 cells stood at 190 nM; with H460 cells it was 103 nM; in the assay with MCF7 cells, 74 nM; with U87 cells, 686 nM.

In the case of `CCc1ncnc(-c2ccc(CN)nc2)c1C#Cc1cnc(C)c(NS(=O)(=O)c2ccccc2C(F)(F)F)c1` [Example 105, N-{5-[4-(6-Aminomethyl-pyridin-3-yl)-6-ethyl-pyrimidin-5-ylethynyl]-2-methyl-pyridin-3-yl}-2-trifluoromethyl-benzenesulfonamide], at PI3Kalpha, the 50% inhibitory concentration (IC50) was determined as 0.93 nM. Moreover, the EC50 in the assay with BT474 cells is 1210 nM; in the assay with MB453 cells, 152 nM; in the assay with H460 cells it was 958 nM; with U87 cells, 406 nM.

In the case of `CCc1ncnc(-c2ccnc(C)c2)c1C#Cc1cnc(C)c(NS(=O)(=O)c2c(F)cccc2F)c1` [Example 103, N-{5-[4-Ethyl-6-(2-methyl-pyridin-4-yl)-pyrimidin-5-ylethynyl]-2-methyl-pyridin-3-yl}-2,6-difluoro-benzenesulfonamide], at PI3Kalpha, the IC50 turned out to be 0.32 nM. Also, the concentration for a half-maximal effect (EC50) in the assay on BT474 cells came out at 53 nM; in the assay with MB453 cells, 59 nM; in the assay with H460 cells it was 185 nM; in the assay with U87 cells, 161 nM.

As to `CCc1ncnc(-c2ccnc(C)c2)c1C#Cc1cnc(C)c(NS(=O)(=O)c2ccc(C#N)cc2)c1` [Example 84, 4-Cyano-N-{5-[4-ethyl-6-(2-methyl-pyridin-4-yl)-pyrimidin-5-ylethynyl]-2-methyl-pyridin-3-yl}-benzenesulfonamide], the half-inhibitory concentration (IC50) at PI3Kalpha was determined as 2 nM. The half-maximal effective concentration (EC50) came out at 190 nM with MB453 cells, 769 nM in the assay on H460 cells, 85 nM with MCF7 cells and 778 nM with U87 cells.

Turning to `CCc1ncnc(-c2ccc(CN)nc2)c1C#Cc1cnc(C)c(NS(=O)(=O)c2ccccc2)c1` [Example 106, N-{5-[4-(6-Aminomethyl-pyridin-3-yl)-6-ethyl-pyrimidin-5-ylethynyl]-2-methyl-pyridin-3-yl}-benzenesulfonamide], at PI3Kalpha, the IC50 stood at 1 nM. The EC50 is 131 nM with BT474 cells, 118 nM in the assay with MB453 cells, 393 nM with H460 cells and 213 nM in the assay with U87 cells.

Turning to `CCc1ncnc(-c2ccnc(C)c2)c1C#Cc1cnc(C)c(NS(=O)(=O)c2ccc(OC)cc2OC)c1` [Example 98, N-{5-[4-Ethyl-6-(2-methyl-pyridin-4-yl)-pyrimidin-5-ylethynyl]-2-methyl-pyridin-3-yl}-2,4-dimethoxy-benzenesulfonamide], the IC50 on PI3Kalpha stood at 2 nM. The 50% effective concentration (EC50) turned out to be 225 nM in the assay with BT474 cells, 437 nM in the assay on MB453 cells, 288 nM in the assay with H460 cells and 559 nM in the assay on U87 cells.

`CCc1ncnc(-c2ccc(CN)nc2)c1C#Cc1cnc(C)c(NS(=O)(=O)c2ccc(F)cc2F)c1` [Example 104, N-{5-[4-(6-Aminomethyl-pyridin-3-yl)-6-ethyl-pyrimidin-5-ylethynyl]-2-methyl-pyridin-3-yl}-2,4-difluoro-benzenesulfonamide]: on PI3Kalpha, the 50% inhibitory concentration (IC50) came to 0.64 nM. In addition, the EC50 is 127 nM with BT474 cells, 119 nM with MB453 cells, 955 nM in the assay on H460 cells and 605 nM in the assay on U87 cells.

On to `CCc1ncnc(-c2ccnc(C)c2)c1C#Cc1cnc(C)c(NS(=O)(=O)c2ccccc2OC)c1` [Example 96, N-{5-[4-Ethyl-6-(2-methyl-pyridin-4-yl)-pyrimidin-5-ylethynyl]-2-methyl-pyridin-3-yl}-2-methoxy-benzenesulfonamide], for which the IC50 on PI3Kalpha was 0.71 nM. In addition, the EC50 in the assay with BT474 cells came out at 84 nM; with MB453 cells it was 102 nM; in the assay with H460 cells, 93 nM; in the assay on U87 cells it was 225 nM.

In the case of `CCc1ncnc(-c2ccnc(C)c2)c1C#Cc1cnc(C)c(NS(=O)(=O)c2cc(Cl)ccc2OC)c1` [Example 101, 5-Chloro-N-{5-[4-ethyl-6-(2-methyl-pyridin-4-yl)-pyrimidin-5-ylethynyl]-2-methyl-pyridin-3-yl}-2-methoxy-benzenesulfonamide], the concentration for half-maximal inhibition (IC50) on PI3Kalpha is 0.65 nM. The EC50 with BT474 cells worked out at 102 nM; with MB453 cells it was 89 nM; with H460 cells, 82 nM; in the assay with U87 cells, 259 nM.

A word on the IC50: it is the point on the concentration scale where inhibition reaches its midpoint. What is called EC50 is the midpoint of the concentration-response curve. Higher therefore signals weaker potency.
